In patent publication US9828339B2, “Biphenyl derivatives and methods for preparing same” (DONG-A ST CO., LTD, priority 2013, dated 2017):

Biological target: human muscarinic M3 receptor (Homo sapiens (Human), UniProt P20309)
Assay: Binding assay on human muscarinic M3 receptor ([3H]-methyl scopolamine displacement)
Conditions: membranes overexpressing human M3 receptor, Ki from IC50 by Cheng-Prusoff, read-out: Binding Affinity to M3 Receptor, Ki
Description: [Experimental Example 1] Binding Assay on Human Muscarinic M3 Receptor
Cell membrane proteins (Perkin Elmer) wherein human muscarinic M3 receptor was overexpressed, [^3H]-methyl scopolamine and test compounds in various concentration were cultured in 0.2 ml of Tris-HCl buffer at 25° C. for 120 minutes. The same was filtered under suction through glass fiber filter (Whatman GF/B), and then the filter was washed 5 times with 1 ml of Tris-HCl buffer. The radioactivity of [^3H]-methyl scopolamine adsorbed on the filter was measured by a liquid scintillation counter. Non-specific binding was evaluated under existence of 5 μM of atropine. Affinity of the compound of the present invention to muscarinic M3 receptor was calculated as the dissociation constant (Ki), which can be calculated from concentration (IC50) of test compounds inhibiting 50% of binding of [^3H]-methyl scopolamine (i.e. labeled ligand) according to Cheng and Prusoff [Cheng and Prusoff, Biochem. Pharmacol., 22, 3099, 1973].

human muscarinic M3 receptor, sequence (P20309 whole entry): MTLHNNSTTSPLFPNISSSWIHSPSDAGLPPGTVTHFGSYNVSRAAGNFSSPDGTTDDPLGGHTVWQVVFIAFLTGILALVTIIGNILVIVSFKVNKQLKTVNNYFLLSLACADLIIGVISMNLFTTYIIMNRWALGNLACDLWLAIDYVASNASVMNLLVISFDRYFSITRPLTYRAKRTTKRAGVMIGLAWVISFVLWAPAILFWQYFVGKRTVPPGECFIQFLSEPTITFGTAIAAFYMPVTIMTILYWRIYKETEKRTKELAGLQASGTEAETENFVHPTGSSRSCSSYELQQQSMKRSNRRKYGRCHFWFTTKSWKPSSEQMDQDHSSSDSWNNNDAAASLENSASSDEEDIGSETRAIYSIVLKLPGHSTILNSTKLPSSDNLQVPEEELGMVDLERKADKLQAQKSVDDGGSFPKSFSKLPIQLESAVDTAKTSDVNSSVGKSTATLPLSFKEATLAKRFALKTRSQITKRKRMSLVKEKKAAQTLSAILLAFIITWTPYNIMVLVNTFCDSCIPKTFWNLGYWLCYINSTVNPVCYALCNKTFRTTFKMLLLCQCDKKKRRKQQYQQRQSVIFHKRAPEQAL

| Structure (SMILES) | Ki |
| --- | --- |
| CN1CCC[C@H]1COC(=O)Nc1ccccc1-c1cccc(F)c1F [Example 189, (S)-(1-methylpyrrolidin-2-yl)methyl(2′,3′-difluoro-[1,1′-biphenyl]-2-yl)carbamate] | 0.0656 µM |
| CN1CCCC1CCOC(=O)Nc1ccc(Cl)cc1-c1cc(F)cc(F)c1 (stereo not drawn) [Example 69, 2-(1-Methylpyrrolidin-2-yl)ethyl(5-chloro-3′,5′-difluoro-[1,1′-biphenyl]-2-yl)carbamate] | 0.109 µM |
| CN1CCCC1CCOC(=O)Nc1ccccc1-c1ccc(F)c(C(F)(F)F)c1 (stereo not drawn) [Example 38, 2-(1-methylpyrrolidin-2-yl)ethyl(4′-fluoro-3′-(trifluoromethyl)-[1,1′-biphenyl]-2-yl)carbamate] | 0.574 µM |
| CN1CCC[C@H]1COC(=O)Nc1ccc(F)cc1-c1cc(O)cc(Cl)c1 [Example 216, (S)-(1-methylpyrrolidin-2-yl)methyl(3′-chloro-5-fluoro-5′-hydroxy-[1,1′-biphenyl]-2-yl)carbamate] | 0.0601 µM |
| CN1CCCC1CCOC(=O)Nc1ccccc1-c1cccc(C(F)(F)F)c1 (stereo not drawn) [Example 12, 2-(1-methylpyrrolidin-2-yl)ethyl(3′-trifluoromethyl-[1,1′-biphenyl]-2-yl)carbamate] | 0.088 µM |
| COc1cc(OC)cc(-c2cc(F)ccc2NC(=O)OC[C@@H]2CCCN2C)c1 [Example 221, (S)-(1-methylpyrrolidin-2-yl)methyl(5-fluoro-3′,5′-dimethoxy-[1,1′-biphenyl]-2-yl)carbamate] | > 1 µM |
| CN1CCCC1CCOC(=O)Nc1ccccc1-c1cccc(O)c1 (stereo not drawn) [Example 40, 2-(1-methylpyrrolidin-2-yl)ethyl(3′-hydroxy-[1,1′-biphenyl]-2-yl)carbamate] | 0.119 µM |
| CN(C)c1ccc(-c2ccccc2NC(=O)OCCC2CCCN2C)cc1 (stereo not drawn) [Example 30, 2-(1-methylpyrrolidin-2-yl)ethyl(4′-(dimethylamino)-[1,1′-biphenyl]-2-yl)carbamate] | 0.83 µM |
| Cc1cc(C)cc(-c2cc(F)ccc2NC(=O)OC[C@@H]2CCCN2C)c1 [Example 208, (S)-(1-methylpyrrolidin-2-yl)-methyl(5-fluoro-3′,5′-dimethyl-[1,1′-biphenyl]-2-yl)-carbamate] | 0.11 µM |
| CN1CC[C@@H](COC(=O)Nc2ccc(F)cc2-c2cc(O)cc(Cl)c2)C1 [Example 134, (R)-(1-methylpyrrolidin-3-yl)methyl(3′-chloro-5-fluoro-5′-hydroxy-[1,1′-biphenyl]-2-yl)carbamate] | 0.0469 µM |
| CN1CCCC1CCOC(=O)Nc1ccccc1-c1ccccc1O (stereo not drawn) [Example 36, 2-(1-methylpyrrolidin-2-yl)ethyl(2′-hydroxy-[1,1′-biphenyl]-2-yl)carbamate] | > 1 µM |
| CN1CC[C@@H](COC(=O)Nc2ccccc2-c2cccc(CO)c2)C1 [Example 152, (R)-(1-methylpyrrolidin-3-yl)-methyl (3′-(hydroxymethyl)-[1,1′-biphenyl]-2-yl)carbamate] | 0.147 µM |
| CN1CCCC1CCOC(=O)Nc1ccccc1-c1ccc(C(C)(C)C)cc1 (stereo not drawn) [Example 31, 2-(1-methylpyrrolidin-2-yl)ethyl(4′-(tert-butyl)-[1,1′-biphenyl]-2-yl)carbamate] | 0.311 µM |
| CN1CCC[C@H]1COC(=O)Nc1ccc(F)cc1-c1cccc(C#N)c1 [Example 178, (S)-(1-methylpyrrolidin-2-yl)methyl (3′-cyano-5-fluoro-[1,1′-biphenyl]-2-yl)carbamate] | > 1 µM |
| CN1CC[C@@H](COC(=O)Nc2ccccc2-c2cccc(C#N)c2)C1 [Example 155, (R)-(1-methylpyrrolidin-3-yl)methyl(3′-cyano-[1,1′-biphenyl]-2-yl)carbamate] | > 1 µM |
| CN1CCCC1CCOC(=O)Nc1ccc(Cl)cc1-c1cc(Cl)cc(Cl)c1 (stereo not drawn) [Example 71, 2-(1-Methylpyrrolidin-2-yl)ethyl (3′,5,5′-trichloro-[1,1′-biphenyl]-2-yl)carbamate] | 0.134 µM |
| CN1CCCC1CCOC(=O)Nc1ccccc1-c1cccc(F)c1F (stereo not drawn) [Example 184, 2-(1-Methylpyrrolidin-2-yl)ethyl(2′,3′-difluoro-[1,1′-biphenyl]-2-yl)carbamate] | 0.0635 µM |
| CN1CCC[C@H]1COC(=O)Nc1ccc(F)cc1-c1ccc(C(F)(F)F)cc1C(F)(F)F [Example 218, (S)-(1-methylpyrrolidin-2-yl)methyl(5-fluoro-2′,4′-bis(trifluoromethyl)-[1,1′-biphenyl]-2-yl)carbamate] | > 1 µM |
| CN1CCC[C@H]1COC(=O)Nc1ccc(F)cc1-c1cccc(C(F)(F)F)c1F [Example 214, (S)-(1-methylpyrrolidin-2-yl)methyl(2′,5-difluoro-3′-(trifluoromethyl)-[1,1′-biphenyl]-2-yl)carbamate] | > 1 µM |
| CN1CCCC1CCOC(=O)Nc1ccc(O)cc1-c1cc(F)cc(F)c1 (stereo not drawn) [Example 75, 2-(1-methylpyrrolidin-2-yl)ethyl (3′,5′-difluoro-5-hydroxy-[1,1′-biphenyl]-2-yl)carbamate] | 0.471 µM |
| CN1CCCC1CCOC(=O)Nc1ccccc1-c1ccc(C(F)(F)F)cc1 (stereo not drawn) [Example 13, 2-(1-methylpyrrolidin-2-yl)ethyl(4′-trifluoromethyl-[1,1′-biphenyl]-2-yl)carbamate] | 0.0801 µM |
| CCOc1cccc(-c2cc(F)ccc2NC(=O)OC[C@@H]2CCCN2C)c1 [Example 219, (S)-(1-methylpyrrolidin-2-yl)methyl(3′-ethoxy-5-fluoro-[1,1′-biphenyl]-2-yl)carbamate] | > 1 µM |
| CC(C)CN1CCC[C@H]1COC(=O)Nc1ccccc1-c1ccccc1 [Example 107, (S)-(1-isobutylpyrrolidin-2-yl)-methyl [1,1′-biphenyl]-2-ylcarbamate] | 0.752 µM |
| COc1cc(Cl)cc(-c2cc(F)ccc2NC(=O)OC[C@@H]2CCN(C)C2)c1 [Example 139, (R)-(1-methylpyrrolidin-3-yl)methyl(3′-chloro-5-fluoro-5′-methoxy-[1,1′-biphenyl]-2-yl)carbamate] | 0.0827 µM |

More lines, now with the values ahead:

| Ki | Structure (SMILES) |
| --- | --- |
| 0.00732 µM | Cc1ccc(NC(=O)OC[C@@H]2CCCN2C)c(-c2ccccc2)c1 [Example 206, (S)-(1-methylpyrrolidin-2-yl)methyl(5-methyl-[1,1′-biphenyl]-2-yl)carbamate] |
| 0.031 µM | CN1CCCC1CCOC(=O)Nc1cc(F)ccc1-c1cccc(F)c1 (stereo not drawn) [Example 24, 2-(1-methylpyrrolidin-2-yl)ethyl(3′,4-difluoro-[1,1′-biphenyl]-2-yl)carbamate] |
| 0.0046 µM | CN1CCC[C@H]1COC(=O)Nc1ccc(F)cc1-c1cc(F)cc(Cl)c1 [Example 210, (S)-(1-methylpyrrolidin-2-yl)methyl(3′-chloro-5,5′-difluoro-[1,1′-biphenyl]-2-yl)carbamate] |
| 0.0458 µM | Cc1cc(C)cc(-c2cc(F)ccc2NC(=O)OC[C@@H]2CCN(C)C2)c1 [Example 193, (R)-(1-methylpyrrolidin-3-yl)methyl(5-fluoro-3′,5′-dimethyl-[1,1′-biphenyl]-2-yl)carbamate] |
| 0.0375 µM | CN1CCCC1CCOC(=O)Nc1ccc(F)cc1-c1cccc(N)c1 (stereo not drawn) [Example 46, 2-(1-methylpyrrolidin-2-yl)ethyl(3′-amino-5-fluoro-[1,1′-biphenyl]-2-yl)carbamate] |
| 0.00892 µM | CN1CCC[C@H]1COC(=O)Nc1ccccc1-c1cc(F)cc(F)c1 [Example 161, (S)-(1-methylpyrrolidin-2-yl)methyl(3′,5′-difluoro-[1,1′-biphenyl]-2-yl)carbamate] |
| 0.0423 µM | CN1CC[C@H](COC(=O)Nc2ccccc2-c2cc(Cl)cc(Cl)c2)C1 [Example 119, (S)-(1-methylpyrrolidin-3-yl)methyl(3′,5′-dichloro-[1,1′-biphenyl]-2-yl)carbamate] |
| 0.0462 µM | Cc1ccc(NC(=O)OC[C@@H]2CCN(C)C2)c(-c2cccc(F)c2)c1 [Example 98, (R)-(1-methylpyrrolidin-3-yl)methyl (3′-fluoro-5-methyl-[1,1′-biphenyl]-2-yl)carbamate] |
| 0.0461 µM | CN1CCCC1CCOC(=O)Nc1ccccc1-c1c(F)cccc1F (stereo not drawn) [Example 185, 2-(1-Methylpyrrolidin-2-yl)ethyl(2′,6′-difluoro-[1,1′-biphenyl]-2-yl)carbamate] |
| 0.0349 µM | O=C(Nc1ccc(F)cc1-c1cc(F)cc(F)c1)OC[C@@H]1CCNC1 [Example 84, (R)-pyrrolidin-3-ylmethyl (3′,5,5′-trifluoro-[1,1′-biphenyl]-2-yl)carbamate] |
| 0.0318 µM | CN1CCCC1CCOC(=O)Nc1ccccc1-c1ccc(Cl)cc1 (stereo not drawn) [Example 7, 2-(1-methylpyrrolidin-2-yl)ethyl(4′-chloro-[1,1′-biphenyl]-2-yl)carbamate] |
| 0.0183 µM | Cc1cccc(-c2cc(F)ccc2NC(=O)OC[C@H]2CCNC2)c1 [Example 83, (S)-pyrrolidin-3-ylmethyl (5-fluoro-3′-methyl-[1,1′-biphenyl]-2-yl)carbamate] |
| 0.0176 µM | CN1CC[C@H](COC(=O)Nc2ccc(F)cc2-c2cc(F)cc(F)c2)C1 [Example 96, (S)-(1-methylpyrrolidin-3-yl)methyl (3′,5,5′-trifluoro-[1,1′-biphenyl]-2-yl)carbamate] |
| 0.0348 µM | CN1CCCC1CCOC(=O)Nc1ccc(F)cc1-c1cc(O)cc(Cl)c1 (stereo not drawn) [Example 57, 2-(1-methylpyrrolidin-2-yl)ethyl(3′-chloro-5-fluoro-5′-hydroxy-[1,1′-biphenyl]-2-yl)carbamate] |
| 0.0108 µM | Cc1cccc(-c2cc(F)ccc2NC(=O)OC[C@H]2CCCN2C)c1 [Example 111, (R)-(1-methylpyrrolidin-2-yl)-methyl (5-fluoro-3′-methyl-[1,1′-biphenyl]-2-yl)carbamate] |
